Laboratory results from paper PMC10583824, “The rational design of ARUK2007145, a dual inhibitor of the α and γ isoforms of the lipid kinase phosphatidylinositol 5-phosphate 4-kinase (PI5P4K)” (RSC Medicinal Chemistry, 2023).
pIC50: −log10 of the molar value. Values after ≈ are worked out from the molar mass of the structure shown.

How the values were obtained:
PI5P4Kγ+ [1] = target: T1, PI5P4Kγ+ (Homo sapiens, UniProt Q8TBX8, D138G/D197E/E133P/E135D/E153T/E196G/G139A/N195G/S132L/S134N); assay: biochemical
T1 sequence (Q8TBX8 with tags, fused parts or gaps INS131LPN/S132D/E133S/S134Q/E135A/G136R/D138G/G139A/E153T/N195G/E196G/D197E): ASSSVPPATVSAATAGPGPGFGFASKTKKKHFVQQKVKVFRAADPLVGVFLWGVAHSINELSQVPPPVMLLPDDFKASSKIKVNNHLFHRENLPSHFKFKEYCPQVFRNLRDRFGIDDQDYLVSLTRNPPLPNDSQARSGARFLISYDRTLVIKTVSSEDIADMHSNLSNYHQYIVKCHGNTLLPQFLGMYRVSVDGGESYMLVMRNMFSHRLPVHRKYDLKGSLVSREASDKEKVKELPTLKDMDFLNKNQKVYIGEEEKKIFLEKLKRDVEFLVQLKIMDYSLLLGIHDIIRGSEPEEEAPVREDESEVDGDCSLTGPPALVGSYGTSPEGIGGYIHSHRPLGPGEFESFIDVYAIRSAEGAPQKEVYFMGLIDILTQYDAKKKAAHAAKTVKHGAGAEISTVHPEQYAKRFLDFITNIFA

[2] = Turbidimetric aqueous solubility; assay type: physicochemical; settings: pH 7.4, turbidimetric
Protocol: (§1) ADMET experimental methods […]
Turbidimetric aqueous solubility: analysis was performed by Cyprotex Discovery. Compound in DMSO at 10 mM was serially diluted to solutions of 0.1, 0.3, 1 and 3 mM in DMSO, then further diluted 1 in 100 in buffer (0.01 M PBS, pH 7.4, 1% DMSO final). 7 replicate wells of each dilution were equilibrated for 2 hours at 37 °C before absorbance is measured at 620 nm. The solubility is estimated from the concentration of test compound that produces an increase in absorbance above vehicle control (1% DMSO in buffer). […]

PI5P4Kα = target: T2, PI5P4Kα (Homo sapiens, UniProt P48426); settings: for PI5P4Kα pIC50: ADP-Glo, footnote a: inconsistent replicates, value shown is upper limit
T2 sequence (P48426 1-406): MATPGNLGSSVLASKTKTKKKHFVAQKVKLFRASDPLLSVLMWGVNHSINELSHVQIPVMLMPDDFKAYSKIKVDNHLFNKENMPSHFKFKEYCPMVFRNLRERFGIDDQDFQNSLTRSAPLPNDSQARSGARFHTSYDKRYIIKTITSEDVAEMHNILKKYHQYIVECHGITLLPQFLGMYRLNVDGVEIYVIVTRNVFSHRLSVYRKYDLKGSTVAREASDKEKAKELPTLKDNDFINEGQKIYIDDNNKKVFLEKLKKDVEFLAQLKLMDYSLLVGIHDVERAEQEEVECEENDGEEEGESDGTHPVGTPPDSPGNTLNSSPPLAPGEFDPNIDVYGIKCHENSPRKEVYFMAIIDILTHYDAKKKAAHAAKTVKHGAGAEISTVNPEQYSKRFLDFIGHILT

[3] = Mouse liver microsome stability; assay type: in vitro ADME; settings: mouse liver microsomes half-life; read-out: MLM t½
Protocol: as §1
Mouse Microsomal stability: analysis was performed by Cyprotex Discovery. Briefly, test compounds in DMSO
protein/mL) in the presence of NADPH (1 mM) at 37 °C. Aliquots were taken at time intervals (0, 5, 15, 30 and
compound remaining, allowing the determination of the half-life for the compound.

MDCK-MDR1 cells = assay: MDR1-MDCK bi-directional permeability and efflux; settings: MDCK-MDR1 cells; A2B; 10 µM
Protocol: (§2) MDR1-MDCK Permeability (bi-directional): was performed by Cyprotex Discovery. Briefly, compounds were administered at 10 µM (1% DMSO final) to the apical or basolateral side of a confluent monolayer of MDR1-MDCK cells, then incubated at 37 °C for 60 minutes before appearance on the opposite side of the monolayer was determined LC-MS/MS. The efflux ratio (ER) is calculated from the ratio of B-A to A-B permeabilities.

MDR1 (P-gp) = assay: MDR1-MDCK bi-directional permeability and efflux; settings: dog, MDCK-MDR1
Protocol: as §2

PI5P4Kγ+ [4] = settings: ratio PI5P4Kα IC50 / PI5P4Kγ+ IC50, ADP-Glo
[5] = PI5P4Kγ+ pIC50, ADP-Glo, footnote a: inconsistent replicates, value shown is upper limit
[6] = ADP-Glo pIC50 PI5P4Kγ+, Table S1, two decimals, asterisk not explained

pIC50 (PI5P4Kγ+ [1]; [5]) | solubility at 2 h [2] | PI5P4Kα pIC50 (PI5P4Kα) | half-life at 1 µM [3] | P app (A2B) (MDCK-MDR1 cells) | efflux ratio at 60 min, 10 µM (MDR1 (P-gp)) | pIC50 (PI5P4Kγ+ [1]; [6]) | ADP-Glo pIC50 PI5P4Kα (PI5P4Kα; Table S1, two decimals, asterisk not explained) | Fold-selectivity (α IC50/γ IC50) (PI5P4Kγ+ [4]) | SMILES
7.30 | 10 µM (≈ 3.4 µg/mL) | <6.2 | 51.4 min | 14.2 10^−6 cm s^−1 | 3.7 | – | – | – | CS(=O)(=O)c1ccc(Nc2ncnc3scc(Cl)c23)cc1 [Compound 32]
7.30 | 3 µM (≈ 1.08 µg/mL) | 7.0 | 1.94 min | 9.95 10^−6 cm s^−1 | 0.91 | 7.28 | 7.01 | 1.9 | Cc1ncccc1-c1cc2ncnc(Nc3ccc(C4CC4)cc3)c2s1 [Compound 38]
7.90 | 30 µM (≈ 11.9 µg/mL) | 6.0 | 8.2 min | 2.45 10^−6 cm s^−1 | 34.1 | 7.91 | – | 79 | Cc1ccncc1-c1cc2c(Nc3ccc(S(C)(=O)=O)cc3)ncnc2s1 [Compound 14]
